Results reported in patent US9834526B2 (MERCK SHARP & DOHME CORP., priority 2013, dated 2017).

Biological target: T1, wildtype HIV-1 protease (Human immunodeficiency virus type 1 group M subtype B, UniProt P04585)
T1 construct: preincubated with the HIV-1 protease (wild type) enzyme in assay buffer; made in house; host or cells: Escherichia coli
Test: Inhibition of microbial expressed HIV protease (Pepcleav)
Assay type: biochemical
Settings: wild type HIV-1 protease expressed in E. coli, 20 pM enzyme, 400 micromolar peptide substrate, pH 5.5, LC-MS readout; mean of at least two independent experiments
Procedure: Assay for Inhibition of Microbial Expressed HIV Protease (“Pepcleav”)
Studies of the inhibition of the wildtype HIV-1 protease (which was expressed in Escherichia coli) were carried out with a peptide substrate [Val-Ser-Gln-Asn-(βnaphthyl)Ala-Pro-Ile-Val (SEQ ID NO:1)]. The inhibitor was first preincubated with the HIV-1 protease (wild type) enzyme in assay buffer (50 mM sodium acetate, pH 5.5, 100 mM NaCl, and 0.1% BSA) for 30 minutes at room temperature. Substrate was added to 400 micromolar in a total volume of 20 microliters containing 20 picomolar HIV-1 protease (final) and the reaction was incubated for 1 hour at 30° C. The reaction was quenched with the addition of formic acid and indinavir to 0.012% and 150 nM final concentrations, respectively. The product formation was determined after separation of product and substrate on a Zorbax Eclipse XDB-C18 column connected to an API 4000 mass spectrometer (Applied Biosystems) with multiple reaction monitoring (transitions were 644.5/428.9 and 615.4/422.2 (M1/M3) for product and indinavir respectively). The extent of inhibition of the reaction was determined from the peak area of the products. Analysis of the products, independently synthesized, provided quantitation standards and confirmation of the product composition.

Row | Structure (SMILES) | IC50 [nM]
1 | COC(=O)N[C@H](C(=O)Nc1ccccc1CC[C@@H]1CN[C@H](C)[C@@H](CSc2cc(N3CCN(C)CC3)ncn2)O1)C(c1ccccc1)c1ccccc1 [Example 39] | 420
2 | C[C@H]1O[C@H](CCc2c(F)cncc2NC(=O)[C@@H](N)C(c2ccc(F)cc2)c2ccc(F)cc2)CN[C@@H]1COC(=O)NCC(F)(F)F [Example 45, 4-fluoro-N-(5-fluoro-4-{2-[(2R,5R,6R)-6-methyl-5-({[(2,2,2-trifluoroethyl)carbamoyl]oxy}methyl)morpholin-2-yl]ethyl}pyridin-3-yl)-β-(4-fluorophenyl)-L-phenylalaninamide] | 24
3 | C[C@H]1O[C@H](COc2c(F)cncc2NC(=O)[C@@H](N)C(c2ccc(F)cc2)c2ccc(F)cc2)CN[C@@H]1COC(=O)NCC(F)(F)F [Example 51, 4-fluoro-N-(5-fluoro-4-{[(2S,5R,6R)-6-methyl-5-({[(2,2,2-trifluoroethyl)carbamoyl]oxy}methyl)morpholin-2-yl]methoxy}pyridin-3-yl)-β-(4-fluorophenyl)-L-phenylalaninamide] | 77
4 | CCC(O)(c1cnc(SC[C@H]2O[C@H](CCc3ccccc3NC(=O)[C@@H](NC(=O)OC)C(c3ccccc3)c3ccccc3)CN[C@@H]2C)s1)C(F)(F)F (stereo partly drawn) [Example 15, methyl N-[(1S)-1-benzhydryl-2-[[2-[2-[(2R,5R,6S)-6-[[5-[1-hydroxy-1-(trifluoromethyl)propyl]thiazol-2-yl]sulfanylmethyl]-5-methyl-morpholin-2-yl]ethyl]phenyl]amino]-2-oxo-ethyl]carbamate] | 17.8
5 | COC(=O)N[C@H](C(=O)Nc1ccccc1CC[C@@H]1CN[C@H](C)[C@@H](CSc2ncccc2C(F)(F)F)O1)C(c1ccccc1)c1ccccc1 [Example 20, methyl N-[(1S)-1-benzhydryl-2-[[2-[2-[(2R,5R,6S)-5-methyl-6-[[3-(trifluoromethyl)-2-pyridyl]sulfanylmethyl]morpholin-2-yl]ethyl]phenyl]amino]-2-oxo-ethyl]carbamate] | 43.3
6 | C[C@H]1O[C@H](CCc2c(F)cccc2NC(=O)[C@@H](N)C(c2ccc(F)cc2)c2ccc(F)cc2)CN[C@@H]1COC(=O)NCc1ccc(F)cc1 [Example 48, 4-fluoro-N-(3-fluoro-2-{2-[(2R,5R,6R)-5-({[(4-fluorobenzyl)carbamoyl]oxy}methyl)-6-methylmorpholin-2-yl]ethyl}phenyl)-β-(4-fluorophenyl)-L-phenylalaninamide] | 5.8
7 | C[C@@H]1O[C@H](CCc2c(F)cccc2NC(=O)[C@@H](N)C(c2ccc(F)cc2)c2ccc(F)cc2)CN[C@@H]1COC(=O)N[C@H](C)C(F)(F)F [Example 61, 4-fluoro-N-[3-fluoro-2-(2-{(2R,5R,6S)-6-methyl-5-[({[(1R)-2,2,2-trifluoro-1-methylethyl]carbamoyl}oxy)methyl]morpholin-2-yl}ethyl)phenyl]-β-(4-fluorophenyl)-L-phenylalaninamide] | 27
8 | COC(=O)N[C@H](C(=O)Nc1ccccc1CC[C@@H]1CN[C@H](c2ncc[nH]2)[C@@H](CSc2nnc(-c3ccncc3)o2)O1)C(c1ccccc1)c1ccccc1 [Example 32, N-(2-{2-[(2R,5R,6S)-5-(1H-imidazol-2-yl)-6-({[5-(pyridin-4-yl)-1,3,4-oxadiazol-2-yl]sulfanyl}methyl)morpholin-2-yl]ethyl}phenyl)-Nα-(methoxycarbonyl)-β-phenyl-L-phenylalaninamide] | 0.65
9 | COC(=O)N[C@H](C(=O)Nc1ccccc1CC[C@@H]1CN[C@H](C)[C@@H](CSc2nncs2)O1)C(c1ccccc1)c1ccccc1 [Example 13, methyl N-[(1S)-1-benzhydryl-2-[[2-[2-[(2R,5R,6S)-5-methyl-6-(1,3,4-thiadiazol-2-ylsulfanylmethyl)morpholin-2-yl]ethyl]phenyl]amino]-2-oxo-ethyl]carbamate] | 12.5
10 | COC(=O)N[C@H](C(=O)Nc1ccccc1CC[C@@H]1CN[C@H](C)[C@@H](CSc2ccncc2)O1)C(c1ccccc1)c1ccccc1 [Example 19, methyl N-[(1S)-1-benzhydryl-2-[[2-[2-[(2R,5R,6S)-5-methyl-6-(4-pyridylsulfanylmethyl)morpholin-2-yl]ethyl]phenyl]amino]-2-oxo-ethyl]carbamate] | 41.4
11 | COC(=O)N[C@H](C(=O)Nc1ccccc1CC[C@@H]1CN[C@H](COCc2ccccc2)[C@@H](CO)O1)C(c1ccccc1)c1ccccc1 [Example 42, N-(2-{2-[(2R,5R,6S)-5-[(benzyloxy)methyl]-6-(hydroxymethyl)morpholin-2-yl]ethyl}phenyl)-Nα-(methoxycarbonyl)-β-phenyl-L-phenylalaninamide] | 80
12 | COC(=O)N[C@H](C(=O)Nc1ccccc1CC[C@@H]1CN[C@H](COC(=O)NCc2ccc(F)cc2)[C@@H](CSc2nnc(-c3ccncc3)o2)O1)C(c1ccccc1)c1ccccc1 [Example 35, N-(2-{2-[(2R,5R,6S)-5-({[(4-fluorobenzyl)carbamoyl]oxy}methyl)-6-({[5-(pyridin-4-yl)-1,3,4-oxadiazol-2-yl]sulfanyl}methyl)morpholin-2-yl]ethyl}phenyl)-Nα-(methoxycarbonyl)-β-phenyl-L-phenylalaninamide] | 0.0304
13 | COC(=O)N[C@H](C(=O)Nc1ccccc1CC[C@@H]1CN[C@H](C)[C@@H](CSc2nnnn2CCN(C)C)O1)C(c1ccccc1)c1ccccc1 [Example 28, methyl N-[(1S)-1-benzhydryl-2-[[2-[2-[(2R,5R,6S)-6-[[1-(2-dimethylaminoethyl)tetrazol-5-yl]sulfanylmethyl]-5-methyl-morpholin-2-yl]ethyl]phenyl]amino]-2-oxo-ethyl]carbamate] | 214
14 | COC(=O)N[C@H](C(=O)Nc1ccccc1CC[C@@H]1CN[C@H](C)[C@@H](CSc2nnc(Cn3nccc3C)o2)O1)C(c1ccccc1)c1ccccc1 [Example 6, methyl N-[(1S)-1-benzhydryl-2-[[2-[2-[(2R,5R,6S)-5-methyl-6-[[5-[(5-methylpyrazol-1-yl)methyl]-1,3,4-oxadiazol-2-yl]sulfanylmethyl]morpholin-2-yl]ethyl]phenyl]amino]-2-oxo-ethyl]carbamate] | 5.12
15 | COC(=O)N[C@H](C(=O)Nc1ccccc1CC[C@@H]1CN[C@H](C)[C@@H](CSc2nnc(Cc3csc(C)n3)o2)O1)C(c1ccccc1)c1ccccc1 [Example 7, methyl N-[(1S)-1-benzhydryl-2-[[2-[2-[(2R,5R,6S)-5-methyl-6-[[5-[(2-methylthiazol-4-yl)methyl]-1,3,4-oxadiazol-2-yl]sulfanylmethyl]morpholin-2-yl]ethyl]phenyl]amino]-2-oxo-ethyl]carbamate] | 7.95
16 | COC(=O)N[C@H](C(=O)Nc1ccccc1CC[C@@H]1CN[C@H](C)[C@@H](CSc2ncnc3c2ncn3[C@@H]2O[C@H](CO)[C@@H](O)[C@H]2O)O1)C(c1ccccc1)c1ccccc1 [Example 23, methyl N-[(1S)-1-benzhydryl-2-[[2-[2-[(2R,5R,6S)-6-[[9-[(2R,3R,4S,5R)-3,4-dihydroxy-5-(hydroxymethyl)tetrahydrofuran-2-yl]purin-6-yl]sulfanylmethyl]-5-methyl-morpholin-2-yl]ethyl]phenyl]amino]-2-oxo-ethyl]carbamate] | 51.9
17 | O=C(CC(c1ccc(F)cc1)c1ccc(F)cc1)Nc1cccc(F)c1CC[C@@H]1CN[C@H](CO)[C@@H](COC(=O)NCC(F)(F)F)O1 [Example 62] | 170
18 | COC(=O)N[C@H](C(=O)Nc1ccccc1CC[C@@H]1CN[C@H](C)[C@@H](CSc2nc[nH]n2)O1)C(c1ccccc1)c1ccccc1 [Example 24, methyl N-[(1S)-1-benzhydryl-2-[[2-[2-[(2R,5R,6S)-5-methyl-6-(1H-1,2,4-triazol-3-ylsulfanylmethyl)morpholin-2-yl]ethyl]phenyl]amino]-2-oxo-ethyl]carbamate] | 58.3
19 | COC(=O)N[C@H](C(=O)Nc1ccccc1CC[C@@H]1CN[C@H](C)[C@@H](CSc2nnc(CN3CCCC3)o2)O1)C(c1ccccc1)c1ccccc1 [Example 26, methyl N-[(1S)-1-benzhydryl-2-[[2-[2-[(2R,5R,6S)-5-methyl-6-[[5-(pyrrolidin-1-ylmethyl)-1,3,4-oxadiazol-2-yl]sulfanylmethyl]morpholin-2-yl]ethyl]phenyl]amino]-2-oxo-ethyl]carbamate] | 124
20 | C[C@@H]1O[C@H](CCc2c(F)cncc2NC(=O)[C@@H](N)C(c2ccc(F)cc2)c2ccc(F)cc2)CN[C@@H]1COC(N)=O [Example 53, N-[4-(2-{(2R,5R,6S)-5-[(carbamoyloxy)methyl]-6-methylmorpholin-2-yl}ethyl)-5-fluoropyridin-3-yl]-4-fluoro-β-(4-fluorophenyl)-L-phenylalaninamide] | 25
21 | CC(C)[C@@H](NC(=O)OC[C@H]1NC[C@@H](CCc2c(F)cccc2NC(=O)[C@@H](N)C(c2ccc(F)cc2)c2ccc(F)cc2)O[C@H]1C)c1ccc(F)cc1 [Example 58, 4-fluoro-N-[3-fluoro-2-(2-{(2R,5R,6S)-5-[({[(1R)-1-(4-fluorophenyl)-2-methylpropyl]carbamoyl}oxy)methyl]-6-methylmorpholin-2-yl}ethyl)phenyl]-β-(4-fluorophenyl)-L-phenylalaninamide] | 6.9
